# Experimental data reported in patent US20230295119A1, “SUBSTITUTED PYRIDINES FOR THE TREATMENT OF INFLAMMATORY DISEASES” (GOSSAMER BIO SERVICES, INC., priority 2020, published 2023).
# Key:
# [1] = target: TYK2 JH2 domain (Homo sapiens (Human), UniProt P29597); assay: TYK2 JH2 NanoBRET assay; format: binding; conditions: Table 20, read-out: TYK2 IC50
# Procedure, shortened: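 HEK293T cells transiently expressing NanoLuc-TYK2 JH2 fusion, incubated 2 h with compound and NanoBRET K10 tracer (0.5 µM final). Target engagement read as acceptor/donor BRET ratio after Nano-Glo substrate plus extracellular NanoLuc inhibitor.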
# [2] = target: human JAK1 (Homo sapiens (Human), UniProt P23458); assay: JAK1 TR-FRET kinase assay; format: biochemical; conditions: TR-FRET, JAK1 2.5 nM
# human JAK1, sequence (P23458 whole entry): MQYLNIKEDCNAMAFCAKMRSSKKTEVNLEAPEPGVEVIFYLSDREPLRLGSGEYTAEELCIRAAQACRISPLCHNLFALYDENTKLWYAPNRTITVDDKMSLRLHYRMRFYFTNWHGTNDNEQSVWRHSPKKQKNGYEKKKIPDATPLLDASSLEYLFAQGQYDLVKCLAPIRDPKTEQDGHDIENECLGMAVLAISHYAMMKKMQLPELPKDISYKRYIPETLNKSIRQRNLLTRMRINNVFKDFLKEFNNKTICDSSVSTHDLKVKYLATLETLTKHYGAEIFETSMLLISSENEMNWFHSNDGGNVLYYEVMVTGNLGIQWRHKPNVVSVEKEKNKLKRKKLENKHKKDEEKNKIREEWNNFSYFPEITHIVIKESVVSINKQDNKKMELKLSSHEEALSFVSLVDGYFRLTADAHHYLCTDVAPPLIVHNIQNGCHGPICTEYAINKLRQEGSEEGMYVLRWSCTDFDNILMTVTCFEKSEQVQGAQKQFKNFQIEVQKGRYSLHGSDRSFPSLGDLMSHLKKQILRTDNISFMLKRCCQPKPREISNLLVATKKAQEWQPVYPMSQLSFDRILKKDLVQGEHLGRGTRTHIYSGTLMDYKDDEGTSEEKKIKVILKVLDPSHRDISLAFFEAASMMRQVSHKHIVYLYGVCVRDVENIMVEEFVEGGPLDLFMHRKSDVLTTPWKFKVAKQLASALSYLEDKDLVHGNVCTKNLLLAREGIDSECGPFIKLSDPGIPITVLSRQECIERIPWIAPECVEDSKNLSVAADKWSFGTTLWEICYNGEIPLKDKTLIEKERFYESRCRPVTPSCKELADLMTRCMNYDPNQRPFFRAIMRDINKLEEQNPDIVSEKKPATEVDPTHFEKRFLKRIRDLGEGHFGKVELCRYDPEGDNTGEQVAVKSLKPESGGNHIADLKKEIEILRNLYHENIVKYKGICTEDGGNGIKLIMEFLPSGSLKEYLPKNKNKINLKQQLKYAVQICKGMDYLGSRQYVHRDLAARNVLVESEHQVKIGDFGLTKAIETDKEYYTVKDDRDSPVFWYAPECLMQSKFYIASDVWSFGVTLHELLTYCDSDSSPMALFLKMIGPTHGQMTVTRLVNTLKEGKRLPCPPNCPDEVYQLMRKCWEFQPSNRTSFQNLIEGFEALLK
# [3] = target: human JAK2 (Homo sapiens (Human), UniProt O60674); assay: JAK2 TR-FRET kinase assay; format: biochemical; conditions: JAK2 0.025 nM
# human JAK2, sequence (O60674 whole entry): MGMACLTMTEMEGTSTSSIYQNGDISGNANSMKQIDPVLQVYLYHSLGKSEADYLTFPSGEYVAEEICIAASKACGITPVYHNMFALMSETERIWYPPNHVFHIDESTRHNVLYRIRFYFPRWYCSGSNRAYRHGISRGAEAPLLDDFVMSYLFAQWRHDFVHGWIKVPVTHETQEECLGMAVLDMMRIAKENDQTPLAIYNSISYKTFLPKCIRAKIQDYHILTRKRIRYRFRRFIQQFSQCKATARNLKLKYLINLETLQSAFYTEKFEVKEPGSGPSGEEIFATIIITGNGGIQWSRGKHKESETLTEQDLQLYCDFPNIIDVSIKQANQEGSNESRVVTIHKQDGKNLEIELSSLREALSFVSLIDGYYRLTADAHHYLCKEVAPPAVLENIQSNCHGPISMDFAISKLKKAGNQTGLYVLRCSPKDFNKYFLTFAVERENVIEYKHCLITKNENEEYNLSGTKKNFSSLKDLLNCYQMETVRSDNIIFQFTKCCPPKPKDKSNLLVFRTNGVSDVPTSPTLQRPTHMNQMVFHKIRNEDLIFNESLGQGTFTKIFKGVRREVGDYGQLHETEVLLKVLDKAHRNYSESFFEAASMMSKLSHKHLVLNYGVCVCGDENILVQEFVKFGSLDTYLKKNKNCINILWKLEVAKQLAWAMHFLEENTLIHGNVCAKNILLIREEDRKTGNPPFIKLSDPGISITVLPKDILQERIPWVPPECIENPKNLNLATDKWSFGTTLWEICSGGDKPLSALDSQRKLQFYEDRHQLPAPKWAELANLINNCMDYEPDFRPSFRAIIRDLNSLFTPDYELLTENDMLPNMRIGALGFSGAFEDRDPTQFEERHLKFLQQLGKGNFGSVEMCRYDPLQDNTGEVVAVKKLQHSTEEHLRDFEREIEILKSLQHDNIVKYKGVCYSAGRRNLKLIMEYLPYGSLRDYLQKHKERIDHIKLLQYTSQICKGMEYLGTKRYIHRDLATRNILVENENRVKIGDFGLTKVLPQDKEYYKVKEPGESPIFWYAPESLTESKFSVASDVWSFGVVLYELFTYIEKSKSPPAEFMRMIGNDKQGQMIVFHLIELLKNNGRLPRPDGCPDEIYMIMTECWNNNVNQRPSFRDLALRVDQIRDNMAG
# [4] = target: human JAK3 (Homo sapiens (Human), UniProt P52333); assay: JAK3 TR-FRET kinase assay; format: biochemical; conditions: JAK3 0.0125 nM
# human JAK3, sequence (P52333 whole entry): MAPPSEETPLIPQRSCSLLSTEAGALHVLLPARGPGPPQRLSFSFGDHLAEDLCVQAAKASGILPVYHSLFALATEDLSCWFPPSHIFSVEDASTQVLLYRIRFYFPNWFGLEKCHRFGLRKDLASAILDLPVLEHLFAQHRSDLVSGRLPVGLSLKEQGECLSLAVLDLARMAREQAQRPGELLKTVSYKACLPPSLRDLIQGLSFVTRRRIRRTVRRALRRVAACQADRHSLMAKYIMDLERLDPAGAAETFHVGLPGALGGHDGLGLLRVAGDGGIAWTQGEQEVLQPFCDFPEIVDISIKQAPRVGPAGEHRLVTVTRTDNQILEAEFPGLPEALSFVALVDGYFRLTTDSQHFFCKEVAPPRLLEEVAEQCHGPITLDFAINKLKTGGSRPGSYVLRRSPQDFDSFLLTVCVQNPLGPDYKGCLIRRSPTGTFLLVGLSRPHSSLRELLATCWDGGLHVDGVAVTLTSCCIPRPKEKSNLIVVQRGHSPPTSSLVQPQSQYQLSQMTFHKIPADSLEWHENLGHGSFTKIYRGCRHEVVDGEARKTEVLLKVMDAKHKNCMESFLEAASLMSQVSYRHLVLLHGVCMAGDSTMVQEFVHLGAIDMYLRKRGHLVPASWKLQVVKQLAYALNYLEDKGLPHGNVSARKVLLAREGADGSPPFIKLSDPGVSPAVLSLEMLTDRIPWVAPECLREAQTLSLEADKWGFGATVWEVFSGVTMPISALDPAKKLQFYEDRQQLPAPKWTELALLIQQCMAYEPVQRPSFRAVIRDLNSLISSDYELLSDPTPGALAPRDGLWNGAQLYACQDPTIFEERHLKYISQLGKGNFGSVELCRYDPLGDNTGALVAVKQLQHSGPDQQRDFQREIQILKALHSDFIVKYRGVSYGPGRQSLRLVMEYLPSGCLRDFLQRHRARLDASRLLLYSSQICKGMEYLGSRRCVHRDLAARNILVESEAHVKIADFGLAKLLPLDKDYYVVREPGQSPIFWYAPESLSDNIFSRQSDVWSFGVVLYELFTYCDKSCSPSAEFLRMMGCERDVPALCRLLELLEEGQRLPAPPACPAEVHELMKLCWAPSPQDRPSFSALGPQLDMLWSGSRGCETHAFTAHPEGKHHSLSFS
# TYK2 JH2 domain, sequence (P29597 589-875): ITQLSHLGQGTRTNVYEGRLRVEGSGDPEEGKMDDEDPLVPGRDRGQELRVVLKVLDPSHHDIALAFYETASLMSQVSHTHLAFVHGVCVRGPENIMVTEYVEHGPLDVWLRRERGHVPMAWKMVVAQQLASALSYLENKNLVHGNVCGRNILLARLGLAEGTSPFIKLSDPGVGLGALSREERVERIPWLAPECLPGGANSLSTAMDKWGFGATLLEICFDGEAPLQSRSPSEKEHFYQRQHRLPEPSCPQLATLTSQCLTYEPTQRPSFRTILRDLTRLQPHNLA
SMILES,IC50 [1] [µM],IC50 [2] [µM],IC50 [3] [µM],IC50 [4] [µM]
CCC(=O)c1cnc(Nc2ccc(C3(N(C)C)CC3)cn2)cc1Nc1cccc(-c2ncn(C)n2)c1OC [Compound 9Q],< 0.005,≥ 0.5,≥ 0.5,≥ 0.5
CCC(=O)c1cnc(Nc2ccc(CN(C)C)cn2)cc1Nc1cccc(-c2ncc(F)cn2)c1OC [Compound 9D],0.005 to 0.05,≥ 0.5,≥ 0.5,≥ 0.5
CCC(=O)c1cnc(Nc2ccc([C@@H](C)N3CC(O)C3)cn2)cc1Nc1cccc(-c2ncn(C)n2)c1OC [Compound 9HH],0.005 to 0.05,≥ 0.5,≥ 0.5,≥ 0.5
CCC(=O)c1cnc(Nc2cc(C(F)(F)F)c(CN(C)C)cn2)cc1Nc1cccc(-c2ncn(C)n2)c1OC [Compound 9SSSS],0.005 to 0.05,≥ 0.5,≥ 0.5,≥ 0.5
CCC(=O)c1cnc(Nc2cnc(O[C@@H]3C[C@H](C)N(C)C3)cn2)cc1Nc1cccc(-c2ncn(C)n2)c1OC [Compound 18MMM],0.005 to 0.05,≥ 0.5,≥ 0.5,≥ 0.5
CCC(=O)c1cnc(Nc2ccc(CN(C)CC(F)(F)F)cn2)cc1Nc1cccc(-c2ncn(C)n2)c1OC [Compound 9X],0.005 to 0.05,≥ 0.5,≥ 0.5,≥ 0.5
CCC(=O)c1cnc(Nc2cnc(C(N)C(F)(F)F)cn2)cc1Nc1cccc(-c2ncn(C)n2)c1OC (stereo not drawn) [Compound 9TTT],0.005 to 0.05,≥ 0.5,≥ 0.5,≥ 0.5
CCC(=O)c1cnc(Nc2ccnc(OCCO)n2)cc1Nc1cccc(-c2ncn(C)n2)c1OC [Compound 180],< 0.005,≥ 0.5,≥ 0.5,≥ 0.5
CCC(=O)c1cnc(Nc2ccc([C@H](C)N(C)C)cn2)cc1Nc1cccc(-c2ncn(C)n2)c1OC [Compound 9K],< 0.005,≥ 0.5,≥ 0.5,≥ 0.5
CCC(=O)c1cnc(Nc2ccc(C(=O)N(C)C)cn2)cc1Nc1cccc(-c2ncn(C)n2)c1OC [Compound 8D],< 0.005,≥ 0.5,≥ 0.5,≥ 0.5
CCC(=O)c1cnc(Nc2ccc(C3(NC)CC3)cn2)cc1Nc1cccc(-c2ncn(C)n2)c1OC [Compound 9P],< 0.005,≥ 0.5,≥ 0.5,≥ 0.5
CCC(=O)c1cnc(Nc2cnc(CN(C)CC(F)(F)F)cn2)cc1Nc1cccc(-c2ncn(C)n2)c1OC [Compound 9XXX],0.005 to 0.05,≥ 0.5,≥ 0.5,≥ 0.5
CCC(=O)c1cnc(Nc2cc(CN3CCOCC3)ccn2)cc1Nc1cccc(-c2ncn(C)n2)c1OC [Compound 9KKKK],< 0.005,≥ 0.5,≥ 0.5,0.05 to 0.5
CCC(=O)c1cnc(Nc2ccc([C@H](C)N3CC(O)C3)cn2)cc1Nc1cccc(-c2ncn(C)n2)c1OC [Compound 9GG],0.005 to 0.05,≥ 0.5,≥ 0.5,≥ 0.5
CCC(=O)c1cnc(Nc2ccc(CN(C)CC)cn2)cc1Nc1cccc(-c2ncn(C)n2)c1OC [Compound 9U],< 0.005,≥ 0.5,≥ 0.5,≥ 0.5
CCC(=O)c1cnc(Nc2cnc(O[C@H]3CCN(C)C[C@@H]3F)cn2)cc1Nc1cccc(-c2ncn(C)n2)c1OC [Compound 18TTT],0.005 to 0.05,≥ 0.5,≥ 0.5,≥ 0.5
CCC(=O)c1cnc(Nc2cccc(C(N)=O)n2)cc1Nc1cccc(-c2ncn(C)n2)c1OC [Compound 8J],< 0.005,≥ 0.5,≥ 0.5,≥ 0.5

# Other lines, results leading:
IC50 [1] [µM],IC50 [2] [µM],IC50 [3] [µM],IC50 [4] [µM],SMILES
< 0.005,≥ 0.5,≥ 0.5,≥ 0.5,CCC(=O)c1cnc(Nc2ccc(S(C)(=O)=O)cn2)cc1Nc1nccc(-c2ncn(C)n2)c1OC [Compound 13I]
0.005 to 0.05,≥ 0.5,≥ 0.5,≥ 0.5,CCC(=O)c1cnc(Nc2ccc(-c3ncn(C)n3)cn2)cc1Nc1nccc(-c2ncn(C)n2)c1OC [Compound 15M]
0.005 to 0.05,≥ 0.5,≥ 0.5,≥ 0.5,CCC(=O)c1cnc(Nc2ccn(C[C@H]3C[C@@H](O)C3)n2)cc1Nc1cccc(-c2ncn(C)n2)c1OC [Compound 21W]
0.005 to 0.05,≥ 0.5,≥ 0.5,0.05 to 0.5,CCC(=O)c1cnc(Nc2ccc(OC[C@@H](O)CO)cn2)cc1Nc1cccc(-c2ncn(C)n2)c1OC [Compound 18F]
0.05 to 0.5,≥ 0.5,≥ 0.5,≥ 0.5,CCC(=O)c1cnc(Nc2ccc(CCN3CCCC3)nn2)cc1Nc1cccc(-c2ncn(C)n2)c1OC [Compound 11E]
< 0.005,≥ 0.5,0.05 to 0.5,0.05 to 0.5,CCC(=O)c1cnc(Nc2ccc(OC3CCN(C)CC3)cn2)cc1Nc1cccc(-c2ncn(C)n2)c1OC [Compound 18Y]
< 0.005,≥ 0.5,≥ 0.5,≥ 0.5,CCC(=O)c1cnc(Nc2cnc(OCCCN3CCCC3)cn2)cc1Nc1cccc(-c2ncn(C)n2)c1OC [Compound 18WW]
< 0.005,≥ 0.5,≥ 0.5,≥ 0.5,CCC(=O)c1cnc(Nc2ccc(-n3ccnc3)cn2)cc1Nc1cccc(-c2ncn(C)n2)c1OC [Compound 15I]
< 0.005,≥ 0.5,≥ 0.5,≥ 0.5,CCC(=O)c1cnc(Nc2ccn([C@H]3C[C@@H](OC(F)F)C3)n2)cc1Nc1cccc(-c2ncn(C)n2)c1OC [Compound 21BB]
< 0.005,≥ 0.5,≥ 0.5,≥ 0.5,CCC(=O)c1cnc(Nc2cnc(OCCN)cn2)cc1Nc1cccc(-c2ncn(C)n2)c1OC [Compound 18MM]
< 0.005,≥ 0.5,≥ 0.5,≥ 0.5,"CCC(=O)c1cnc(Nc2ccc(OCCN3CCCC3)cn2)cc1Nc1cccc(-c2ncn(C)n2)c1OC [Compound 10A, 1-(4-((2-methoxy-3-(1-methyl-1H-1,2,4-triazol-3-yl)phenyl)amino)-6-((5-(2-(pyrrolidin-1-yl)ethoxy)pyridin-2-yl)amino)pyridin-3-yl)propan-1-one]"
0.05 to 0.5,≥ 0.5,≥ 0.5,≥ 0.5,CCC(=O)c1cnc(NC(=O)C2CC2)cc1Nc1cc(CO)cc(-c2ncn(C)n2)c1OC [Compound 25D]
0.05 to 0.5,≥ 0.5,≥ 0.5,≥ 0.5,CCC(=O)c1cnc(NC(=O)C2CC2c2ccn(C)n2)cc1Nc1cccc(-c2ncn(C)n2)c1OC (stereo not drawn) [Compound 22M]
0.05 to 0.5,≥ 0.5,≥ 0.5,≥ 0.5,CCC(=O)c1cnc(Nc2ncc(S(C)(=O)=O)cc2F)cc1Nc1cccc(-c2ncn(C)n2)c1OC [Compound 13Z]
< 0.005,≥ 0.5,≥ 0.5,≥ 0.5,CCC(=O)c1cnc(Nc2cnc(O[C@H]3CCN(C)C3)cn2)cc1Nc1cccc(-c2ncn(C)n2)c1OC [Compound 18TT]
0.005 to 0.05,≥ 0.5,≥ 0.5,≥ 0.5,CCC(=O)c1cnc(Nc2ccn([C@H]3C[C@H](OC)C3)n2)cc1Nc1cccc(-c2ncn(C)n2)c1OC [Compound 21L]
